# Values quoted from earlier work, collected in US6689394B2, “Removal of ectoparasites” (Schering-Plough HealthCare Products, Inc., priority 2001, dated 2004).
# System: head lice
# Conditions: comparison of published results for topical pesticidal treatments
smiles,measurement,value
CC1(C)C(C=C(Cl)Cl)C1C(=O)OCc1cccc(Oc2ccccc2)c1 (stereo not shown) [Permethrin],evidence of clinical efficacy,sufficient evidence of efficacy
